# Values quoted from earlier work, collected in US11504326B2, “Lipid emulsion therapy for treating acute cannabinoid intoxication” (priority 2019, dated 2022).
# Where two headings read alike, the source gives them in different places.
# Columns and labels:
# [1] = in vivo
# psychoactive effects = details: for dose that impairs attention, concentration, short-term memory, and executive functioning: adolescents and adults
structure (smiles),measurement,setting,value
"CCCCCc1cc(O)c2c(c1)OC(C)(C)[C@@H]1CCC(C)=C[C@@H]21 [THC, tetrahydrocannabinol]",protein-bound,[1],95-99%
same,volume of distribution,[1],2.5 to 3.5 L/kg
same,"dose that impairs attention, concentration, short-term memory, and executive functioning",psychoactive effects; ingested,5 to 20 mg
same,dose at which psychotropic effects occur,"psychoactive effects; ingested, naive users",5 to 20 mg
same,"dose that impairs attention, concentration, short-term memory, and executive functioning",psychoactive effects; inhaled,2 to 3 mg
same,dose sufficient to produce drug effects,"psychoactive effects; inhaled, naïve user",2 to 3 mg
